Experimental data: patent US12070501B1, “Topical ophthalmological compositions” (ADS Therapeutics LLC, priority 2021, dated 2024)

Experiments:
[1] = system: New Zealand White rabbits
[2] = water-based formulation at neutral pH; cited from earlier work
[3] = Miscibility of semi-fluorinated alkane F6H8 with MCT or light liquid paraffin oil; format: physicochemical
Description: F6H8, a semi-fluorinated alkane was tested for miscibility with MCT with the ratio of F6H8 to MCT from 1:99 to 99:1. […] F6H8, a semi-fluorinated alkane was tested for miscibility with light liquid paraffin oil with the ratio of F6H8 to light liquid paraffin oil from 1:99 to 99:1.

| SMILES | Magnitude of pupil size changes versus atropine sulfate in aqueous solution ([1]; atropine in F6H8-based formulation, at comparable doses) | Dose response in pupil size dilation ([1]; from 0.01% to 0.05% atropine, Day 7 and Day 22) | Pupil size dilation ([1]; topical ocular instillation twice daily, 40 μL to left eye, Day 7 and Day 22, CBT-009 at 0.01%, […] and 0.05% in […] phenylethyl alcohol, 10% MCT, 89.75% F6H8, comparator 0.03%) | Shelf life of the product [2] | Miscibility with MCT ([3]; ratio of F6H8 to MCT from 1:99 to 99:1) | Miscibility with light liquid paraffin oil ([3]; ratio of F6H8 to light liquid paraffin oil from 1:99 to 99:1) |
| --- | --- | --- | --- | --- | --- | --- |
| CN1[C@@H]2CC[C@H]1C[C@@H](OC(=O)C(CO)c1ccccc1)C2 (stereo partly drawn) [Atropine, atropine] | comparable | dose response in pupil size dilation was observed | pupil size dilation was observed | less than 1 year |  |  |
| CCCCCCCCC(F)(F)C(F)(F)C(F)(F)C(F)(F)C(F)(F)C(F)(F)F [F6H8, perfluorohexyloctane] |  |  |  |  | miscible with MCT at all ratios | miscible with light liquid paraffin oil at all ratios |
